Measurements: ChEMBL document CHEMBL1151828, “Screening of flavonoids as candidate antibiotics against Enterococcus faecalis” (J Nat Prod, 2009)
≈ marks a conversion by molar mass, not a printed value.

Key:
Enterococcus faecalis [1] = test: Antimicrobial activity against vancomycin-resistant Enterococcus faecalis after 20 hrs by broth microdilution method; assay type: functional
Enterococcus faecalis [2] = test: Antimicrobial activity against Enterococcus faecalis after 20 hrs by broth microdilution method; assay type: functional
[3] = Solubility at 1 mM; assay type: physicochemical; conditions: 1000 µM

Row | Compound | MIC (Enterococcus faecalis [1]) [µg/mL] | MIC (Enterococcus faecalis [2]) [µg/mL] | solubility [3]
1 | O=C1CC(c2ccccc2O)Oc2ccc(O)cc21 (centres undefined) | 256 (≈ 999 µM) | 256 (≈ 999 µM) | 
2 | O=C1CC(c2cccc(O)c2)Oc2ccccc21 (centres undefined) [3'-HYDROXYFLAVANONE] | 256 (≈ 1070 µM) | 256 (≈ 1070 µM) | 
3 | O=C1c2c(O)cc(O)cc2O[C@H](c2ccc(O)c(O)c2)[C@H]1O [(+)-TAXIFOLIN] | 512 (≈ 1680 µM) | 128 (≈ 421 µM) | 
4 | O=C1c2ccc(O)cc2OC(c2cc(O)c(O)c(O)c2)C1O (centres undefined) [DIHYDROBINETIN] | > 512 | 256 (≈ 841 µM) | Insoluble
5 | O=C1C[C@@H](c2ccc(O)c(O)c2)Oc2cc(O)cc(O)c21 [ERIODICTYOL] | 512 (≈ 1780 µM) | 256 (≈ 888 µM) | 
6 | O=C1C[C@@H](c2ccc(O)cc2)Oc2cc(O)cc(O)c21 [NARINGENIN] | 512 (≈ 1880 µM) | 256 (≈ 940 µM) | 
7 | O=C1C[C@@H](c2ccccc2)Oc2cc(O)cc(O)c21 [PINOCEMBRIN] |  | > 512 | 
